According to US20220153734A1, “Pyrazolopyridine Compounds For IRE1 Inhibition” (Optikira, LLC, priority 2019, published 2022):

Tests used:
IRE1α = biological target: T1, IRE1α (Homo sapiens, UniProt O75460); assay: Biochemical assay: inhibition of RNase activity of IRE1α; conditions: enzyme 0.325 nM, substrate 100 nM, 20 minutes
T1 construct: purchased Signal Chem E31-11G
Summary of the method: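 RNase cleavage monitored as dequenching of a 5′ Alexa Fluor 647/3′ quencher RNA oligo (100 nM), stopped with 5 M urea after 20 min at room temperature. Enzyme 0.325 nM, preceded by 30 min compound pre-incubation; buffer Tris/MgCl2/KCl/DTT/Tween, 4% DMSO final. IC50 from curve fit of % inhibition.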

[1] = system: ARPE-19 cells stably expressing XBP1 (a.a. 1-376); assay: Cellular XBP1 splicing assay (NanoLuc luciferase, thapsigargin); type: cell-based; conditions: thapsigargin 150 nM
Summary of the method: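 ARPE-19 cells carrying an XBP1(1-376)-NanoLuc splicing reporter were pretreated with compound (10-point ½-log series, 0.117% DMSO) for 30 min, then stressed with 150 nM thapsigargin for 4 h at 37° C. Luminescence was read, and IC50 values came from sigmoidal fits of percent inhibition of control.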

T1 sequence (O75460 468-977 limits assumed): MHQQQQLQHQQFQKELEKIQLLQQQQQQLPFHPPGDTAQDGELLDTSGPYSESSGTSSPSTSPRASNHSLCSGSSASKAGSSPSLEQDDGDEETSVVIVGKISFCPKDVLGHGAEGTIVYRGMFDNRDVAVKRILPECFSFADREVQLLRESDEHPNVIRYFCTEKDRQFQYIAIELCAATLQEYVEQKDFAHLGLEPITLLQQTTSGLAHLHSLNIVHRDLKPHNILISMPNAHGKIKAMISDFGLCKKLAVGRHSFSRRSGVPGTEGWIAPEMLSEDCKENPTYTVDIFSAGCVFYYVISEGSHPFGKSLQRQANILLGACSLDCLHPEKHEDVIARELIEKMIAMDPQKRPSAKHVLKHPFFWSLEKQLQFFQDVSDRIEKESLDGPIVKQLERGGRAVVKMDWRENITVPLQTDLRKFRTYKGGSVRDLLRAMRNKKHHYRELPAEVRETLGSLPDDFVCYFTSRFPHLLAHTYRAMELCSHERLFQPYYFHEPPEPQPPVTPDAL

Row | IC50 (IRE1α) | IC50 ([1]; 4 hour) | IC50 ([1]; Homo sapiens, ARPE-19, 4 h) | Structure (SMILES)
1 | 0.9 nM | 9 nM |  | COCCNC1CC=C(c2cnc(N)c3c(-c4ccc(NS(=O)(=O)Cc5ccccc5Cl)c(F)c4)nn(C(C)C)c23)CC1 (single isomer, unassigned) [Compound B55, N-(4-(4-amino-1-isopropyl-7-(4-((2-methoxyethyl)amino)cyclohex-1-en-1-yl)-1H-pyrazolo[4,3-c]pyridin-3-yl)-2-fluorophenyl)-1-(2-chlorophenyl)methanesulfonamide]
2 | 120 nM | 250 nM |  | CC(C)n1nc(-c2ccc(NS(=O)(=O)c3ccccc3F)c(F)c2)c2c(N)ncc(C3=CCC(NC4COC4)CC3)c21 (single isomer, unassigned) [Compound B58, N-(4-(4-amino-1-isopropyl-7-(4-(oxetan-3-ylamino)cyclohex-1-en-1-yl)-1H-pyrazolo[4,3-c]pyridin-3-yl)-2-fluorophenyl)-2-fluorobenzenesulfonamide]
3 | 34 nM | 110 nM |  | CCn1nc(-c2ccc(NS(=O)(=O)c3ccccc3Cl)c(F)c2)c2c(N)ncc(C3=CCC(NC4COC4)CC3)c21 (single isomer, unassigned) [Compound B61, N-(4-(4-amino-1-ethyl-7-(4-(oxetan-3-ylamino)cyclohex-1-en-1-yl)-1H-pyrazolo[4,3-c]pyridin-3-yl)-2-fluorophenyl)-2-chlorobenzenesulfonamide]
4 | 75 nM | 400 nM |  | CCn1nc(-c2ccc(NS(=O)(=O)c3ccccc3Cl)c(F)c2)c2c(N)ncc(C3=CCC(NC4COC4)CC3)c21 (single isomer, unassigned) [Compound B62, N-(4-(4-amino-1-ethyl-7-(4-(oxetan-3-ylamino)cyclohex-1-en-1-yl)-1H-pyrazolo[4,3-c]pyridin-3-yl)-2-fluorophenyl)-2-chlorobenzenesulfonamide]
5 | 4.6 nM |  | 3 nM | COCCN[C@H]1CC[C@H](c2cnc(N)c3c(-c4cc(F)c(NS(=O)(=O)c5cc(OC)ccc5Cl)cc4F)nn(C(C)C)c32)CC1 [Compound A2, N-(4-(4-amino-1-isopropyl-7-((1r,4r)-4-((2-methoxyethyl)amino)cyclohexyl)-1H-pyrazolo[4,3-c]pyridin-3-yl)-2,5-difluorophenyl)-2-chloro-5-methoxybenzenesulfonamide]
6 | 16 nM |  | 15 nM | CC(C)n1nc(-c2cc(F)c(NS(=O)(=O)c3ccccc3F)cc2F)c2c(N)ncc([C@H]3CC[C@H](N4CCOCC4)CC3)c21 [Compound A3]
7 | 1.3 nM |  | 10 nM | COCCN[C@H]1CC[C@H](c2cnc(N)c3c(-c4cc(F)c(NS(=O)(=O)c5cc(Cl)ccc5F)cc4F)nn(C(C)C)c32)CC1 [Compound A4, N-(4-(4-amino-1-isopropyl-7-((1r,4r)-4-((2-methoxyethyl)amino)cyclohexyl)-1H-pyrazolo[4,3-c]pyridin-3-yl)-2,5-difluorophenyl)-5-chloro-2-fluorobenzenesulfonamide]
8 | 1.9 nM |  | 25 nM | COCCN[C@H]1CC[C@H](c2cnc(N)c3c(-c4cc(F)c(NS(=O)(=O)c5cc(OC(F)F)ccc5F)cc4F)nn(C(C)C)c32)CC1 [Compound A5, N-(4-(4-amino-1-isopropyl-7-((1r,4r)-4-((2-methoxyethyl)amino)cyclohexyl)-1H-pyrazolo[4,3-c]pyridin-3-yl)-2,5-difluorophenyl)-5-(difluoromethoxy)-2-fluorobenzenesulfonamide]
9 | 2.6 nM |  | 2.7 nM | COCCN[C@H]1CC[C@H](c2cnc(N)c3c(-c4ccc(NS(=O)(=O)c5ccccc5F)c(F)c4)nn(C(C)C)c32)CC1 [Compound A6, N-(4-(4-amino-1-isopropyl-7-((1r,4r)-4-((2-methoxyethyl)amino)cyclohexyl)-1H-pyrazolo[4,3-c]pyridin-3-yl)-2-fluorophenyl)-2-fluorobenzenesulfonamide]
10 | 2.9 nM |  | 24 nM | COCCN[C@H]1CC[C@H](c2cnc(N)c3c(-c4cc(F)c(NS(=O)(=O)c5cccc(OC)c5F)cc4F)nn(C(C)C)c32)CC1 [Compound A7, N-(4-(4-amino-1-isopropyl-7-((1r,4r)-4-((2-methoxyethyl)amino)cyclohexyl)-1H-pyrazolo[4,3-c]pyridin-3-yl)-2,5-difluorophenyl)-2-fluoro-3-methoxybenzenesulfonamide]
11 | 1.9 nM |  | 3.9 nM | CCOc1ccc(F)c(S(=O)(=O)Nc2cc(F)c(-c3nn(C(C)C)c4c3c(N)ncc4[C@H]3CC[C@H](NCCOC)CC3)cc2F)c1 [Compound A8, N-(4-(4-amino-1-isopropyl-7-((1r,4r)-4-((2-methoxyethyl)amino)cyclohexyl)-1H-pyrazolo[4,3-c]pyridin-3-yl)-2,5-difluorophenyl)-5-ethoxy-2-fluorobenzenesulfonamide]
12 | 20 nM |  | 110 nM | COCCN[C@H]1CC[C@H](c2cnc(N)c3c(-c4cc(F)c(NS(=O)(=O)c5ccc(OC)cc5)cc4F)nn(C(C)C)c32)CC1 [Compound A9, N-(4-(4-amino-1-isopropyl-7-((1r,4r)-4-((2-methoxyethyl)amino)cyclohexyl)-1H-pyrazolo[4,3-c]pyridin-3-yl)-2,5-difluorophenyl)-4-methoxybenzenesulfonamide]
13 | 240 nM |  | 19 nM | COCCN[C@H]1CC[C@H](c2cnc(N)c3c(-c4cc(F)c(NS(=O)(=O)c5ccccc5OC)cc4F)nn(C(C)C)c32)CC1 [Compound A10, N-(4-(4-amino-1-isopropyl-7-((1r,4r)-4-((2-methoxyethyl)amino)cyclohexyl)-1H-pyrazolo[4,3-c]pyridin-3-yl)-2,5-difluorophenyl)-2-methoxybenzenesulfonamide]
14 | 8.9 nM |  | 15 nM | COCCN[C@H]1CC[C@H](c2cnc(N)c3c(-c4cc(F)c(NS(=O)(=O)c5cccc(OC)c5)cc4F)nn(C(C)C)c32)CC1 [Compound A11, N-(4-(4-amino-1-isopropyl-7-((1r,4r)-4-((2-methoxyethyl)amino)cyclohexyl)-1H-pyrazolo[4,3-c]pyridin-3-yl)-2,5-difluorophenyl)-3-methoxybenzenesulfonamide]
15 | 440 nM |  | 1400 nM | CC(C)n1nc(-c2ccc(NS(=O)(=O)c3ccccc3F)c(F)c2)c2c(N)ncc([C@H]3CC[C@@H](NC4COC4)CC3)c21 [Compound A12, N-(4-(4-amino-1-isopropyl-7-((1s,4s)-4-(oxetan-3-ylamino)cyclohexyl)-1H-pyrazolo[4,3-c]pyridin-3-yl)-2-fluorophenyl)-2-fluorobenzenesulfonamide]
16 | 17 nM |  | 78 nM | COCCN[C@H]1CC[C@H](c2cnc(N)c3c(-c4cc(F)c(NS(=O)(=O)c5ccc(F)c(OC)c5)cc4F)nn(C(C)C)c32)CC1 [Compound A13, N-(4-(4-amino-1-isopropyl-7-((1r,4r)-4-((2-methoxyethyl)amino)cyclohexyl)-1H-pyrazolo[4,3-c]pyridin-3-yl)-2,5-difluorophenyl)-4-fluoro-3-methoxybenzenesulfonamide]
17 | 21 nM |  | 240 nM | COCCN[C@H]1CC[C@H](c2cnc(N)c3c(-c4cc(F)c(NS(=O)(=O)c5ccc(Cl)cc5)cc4F)nn(C(C)C)c32)CC1 [Compound A14, N-(4-(4-amino-1-isopropyl-7-((1r,4r)-4-((2-methoxyethyl)amino)cyclohexyl)-1H-pyrazolo[4,3-c]pyridin-3-yl)-2,5-difluorophenyl)-4-chlorobenzenesulfonamide]
18 | 6.6 nM |  | 13 nM | COCCN[C@H]1CC[C@H](c2cnc(N)c3c(-c4cc(F)c(NS(=O)(=O)c5ccc(F)cc5Cl)cc4F)nn(C(C)C)c32)CC1 [Compound A15, N-(4-(4-amino-1-isopropyl-7-((1r,4r)-4-((2-methoxyethyl)amino)cyclohexyl)-1H-pyrazolo[4,3-c]pyridin-3-yl)-2,5-difluorophenyl)-2-chloro-4-fluorobenzenesulfonamide]
19 | 7.8 nM |  | 77 nM | COCCN[C@H]1CC[C@H](c2cnc(N)c3c(-c4cc(F)c(NS(=O)(=O)c5ccc(Cl)cc5F)cc4F)nn(C(C)C)c32)CC1 [Compound A16, N-(4-(4-amino-1-isopropyl-7-((1r,4r)-4-((2-methoxyethyl)amino)cyclohexyl)-1H-pyrazolo[4,3-c]pyridin-3-yl)-2,5-difluorophenyl)-4-chloro-2-fluorobenzenesulfonamide]
20 | 0.9 nM |  | 12 nM | COCCN[C@H]1CC[C@H](c2cnc(N)c3c(-c4cc(F)c(NS(=O)(=O)Cc5ccc(F)cc5)cc4F)nn(C(C)C)c32)CC1 [Compound A17, N-(4-(4-amino-1-isopropyl-7-((1r,4r)-4-((2-methoxyethyl)amino)cyclohexyl)-1H-pyrazolo[4,3-c]pyridin-3-yl)-2,5-difluorophenyl)-1-(4-fluorophenyl)methanesulfonamide]
21 | 12 nM |  | 37 nM | COCCN[C@H]1CC[C@H](c2cnc(N)c3c(-c4ccc(NS(=O)(=O)c5ccccc5F)cc4F)nn(C(C)C)c32)CC1 [Compound A18]
22 | 6.1 nM |  | 4 nM | COCCN[C@H]1CC[C@H](c2cnc(N)c3c(-c4cc(F)c(NS(=O)(=O)c5ccccc5Cl)cc4F)nn(C(C)C)c32)CC1 [Compound A19, N-(4-(4-amino-1-isopropyl-7-((1r,4r)-4-((2-methoxyethyl)amino)cyclohexyl)-1H-pyrazolo[4,3-c]pyridin-3-yl)-2,5-difluorophenyl)-2-chlorobenzenesulfonamide]
